The values below come from US20240325379A1, “LOW-DOSE NALTREXOL AND USES THEREOF” (AETHER THERAPEUTICS INC., priority 2021, published 2024).

The test system of series [1] is MOR. In words: Antagonist potency when administered before morphine in mice. Type of series: in vivo. The following applies: for change of antagonist potency when given before morphine compared to the same time: ~2 h before morphine.
Series [2] relates to morphine induced slowing of bowel movements. The following applies: cited from earlier work.
In series [3] the test system is peripheral sensory neurons. Conditions: after washing out the drugs, 6BN tested at 10 μM; cited from earlier work.
The next series can be described thus: Water solubility. It is filed as physicochemical. From the text:
(§1) Additional preferred formulations include transdermal patch application and intranasal application (with partial direct access to the brain, bypassing the blood-brain-barrier). When combined with opioid analgesics in a co-formulation, LD-6BN can be delivered in the same formulation type for any of the opioid analgesics currently used clinically, including sustained release oral preparations. No dosage adjustments are needed.

Another series relates to peripheral MOR. Conditions: methadone maintenance subjects, cited from earlier work.
Series [4] can be described thus: Blood and brain levels of 6BN after s.c. doses (FIG. 3). Type of series: in vivo, guinea pigs. As for the experimental part:
Therefore, when serving as an addiction modulator, LD-6BN interacts effectively with both peripheral and central opioid receptors. Its effect on reversing opioid induced hyperalgesia might at least in part occur by acting on MOR in peripheral nociceptor neurons (15), but reversal of opioid dependence is likely driven by a central effect. The level of MOR bound 6BN after an s.c. dose of 0.02 mg/kg is estimated to occupy ˜10% of MOR sites, assuring a gradual reversal of MOR-μ* to MOR-μ and MOR-μ^x, insufficient to interfere with opioid analgesia, or cause withdrawal in dependent subjects.
(§2) High potency in facilitating gradual conversion of the dependent state (elevated MOR-μ*) back to the resting and/or reserve MOR states. Following LD-6B dosing, only a low fractional receptor occupancy is sufficient to reverse the dependent state in a gradual dynamic fashion, further accounting for high potency as an addiction modulator. • 5. When designed to act as an antagonist (doses above the LD-6BN range), potency is expected to increase over time when administered before an opioid agonist, presumably via high MOR-μ* occupancy and thereby more rapid reversal of MOR-μ* back to its resting or reserve states. […] Morphinan analogues of 6BN tend to bind to all opioid receptors with varying potency and efficacy (patents (47)). […] Potency of potential addiction modulators should therefore be tested for binding and efficacy at MOR, DOR (delta), and KOR, to detect differences between them and anticipate potential variation in clinical outcomes.

The next series concerns MOR-μ*. Kind of series: Prevention/reversal of opioid dependence in animal models (FIG. 1, methadone-treated animals). Type of series: in vivo, guinea pig. Conditions: low dose, no interference with opioid analgesia, no withdrawal.
The target of series [5] is T1, MOR (Homo sapiens, UniProt P35372). The following applies: 6β-naltrexol compared with naltrexone; cited from earlier work.
For series [6], the target named is kappa opioid receptors (KOR) (Homo sapiens, UniProt P41145). In words: Inverse agonist activity at KOR pretreated in vitro with KOR agonists. It is filed as biochemical.
Description: as §2

Series [7] can be described thus: Oral bioavailability in humans. Conditions: human, in vivo.
Description: as §1

For series [8] the following is noted: humans; cited from earlier work.
Series [9] is described as follows: Oral bioavailability in rodents. The following applies: in vivo. As to the method: In one embodiment, the dose of 6BN is from 0.001 to 0.25 mg. In another embodiment, the dose of 6BN is from 0.25 to 0.50 mg. In a further embodiment, the dose of 6BN is from 0.50 to 0.75 mg. In a still further embodiment, the dose of 6BN is from 0.75 to 1.0 mg. In a still another embodiment, the dose of 6BN is from 1.0 to 1.25 mg. In another embodiment, the dose of 6BN is from 1.25 to 1.5 mg. In a further embodiment, the dose of 6BN is from 1.5 to 1.75 mg. In a still further embodiment, the dose of 6BN is from 1.75 to 2.0 mg. In a still further embodiment, the dose of 6BN is from 2.0 to 3.0 mg. These projected dose ranges can be modified once clinical results with LD-6BN are available (for example oral bioavailability, estimated here to be ˜30% as observed in rodents.

Series [10] deals with T1, MOR. In words: MOR affinity (in vitro binding).
The target in series [11] is T1, MOR. Kind of series: Neutral antagonism at MOR. From the text:
(§3) The invention embodies usage of any of these compounds or derivatives or metabolites thereof.

In series [12] the target is T1, MOR. Conditions: in vivo.
Description: as §3

For series [13], the system named is MOR. Conditions: opioid detoxification/weaning with descending doses of buprenorphine; cited from earlier work.

SMILES strings stand for the structures. “Also recorded” adds a separate entry of the source. Read-outs that look alike come from different tables or passages of the source.

T1 sequence (P35372 whole entry): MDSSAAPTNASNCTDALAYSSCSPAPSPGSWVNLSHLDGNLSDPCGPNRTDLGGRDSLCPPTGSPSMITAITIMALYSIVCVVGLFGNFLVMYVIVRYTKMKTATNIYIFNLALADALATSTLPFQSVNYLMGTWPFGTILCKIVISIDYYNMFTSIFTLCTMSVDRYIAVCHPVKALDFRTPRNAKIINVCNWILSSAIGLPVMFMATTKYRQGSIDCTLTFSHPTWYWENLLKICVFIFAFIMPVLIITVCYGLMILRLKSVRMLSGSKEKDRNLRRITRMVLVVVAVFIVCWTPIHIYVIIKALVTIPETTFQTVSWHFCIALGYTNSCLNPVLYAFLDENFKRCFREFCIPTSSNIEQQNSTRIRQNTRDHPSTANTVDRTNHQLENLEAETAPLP
kappa opioid receptors (KOR), sequence (P41145 whole entry): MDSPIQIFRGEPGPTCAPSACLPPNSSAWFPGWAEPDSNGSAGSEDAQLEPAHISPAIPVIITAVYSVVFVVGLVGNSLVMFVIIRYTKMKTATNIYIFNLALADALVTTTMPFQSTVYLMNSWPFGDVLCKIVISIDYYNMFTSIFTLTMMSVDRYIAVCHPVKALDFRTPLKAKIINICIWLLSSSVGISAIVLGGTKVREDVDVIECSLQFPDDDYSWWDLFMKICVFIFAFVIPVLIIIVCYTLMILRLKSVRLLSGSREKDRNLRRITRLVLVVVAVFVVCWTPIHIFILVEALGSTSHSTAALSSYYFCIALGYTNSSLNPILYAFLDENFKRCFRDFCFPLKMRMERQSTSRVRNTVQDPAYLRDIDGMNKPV
Description for MOR-μ*: FIG. 1 provides data showing prevention of withdrawal behavior in methadone-treated animals.

Turning to `Oc1ccc2c3c1O[C@H]1[C@H](O)CC[C@@]4(O)[C@@H](C2)N(CC2CC2)CC[C@]314` [6BN, 6β-naltrexol], the “pre-injection time of maximal delayed antagonist action” value in the series on MOR [1] (high doses) is reported as around 2 h. Moreover, the “change of antagonist potency when given before morphine compared to the same time” value with MOR [1] was “becomes more potent as an antagonist”. In addition, in series [2] (20 mg, highest dose tested, administered 30 min before morphine), the suppression of analgesia result is on record as “did not suppress analgesia”. Further, the “ID50 against morphine induced slowing of bowel movements” value in [2] (i.v., against 10 mg morphine, opioid naïve subjects) is reported as around 3 mg. Besides, the “effect on MOR-μ* state” value in [3] is “reverses MOR-μ* back to the inactive state”. In addition, in “Water solubility”, the water solubility result is “highly water soluble”. Moreover, the central withdrawal symptoms result in the series with peripheral MOR (0.5-1.0 mg i.v.) is given as “no central withdrawal symptoms”. For the same compound, the tolerated i.v. dose in the series on peripheral MOR (i.v., peripheral effects and bowel movements experienced) was 0.5 to 1.0 mg. Moreover, in series [4] (Cavia porcellus, sc, after an s.c. dose of 0.02 mg/kg, estimated, read-out: occupancy of MOR sites by bound 6BN), the receptor occupancy at 0.02 mg/kg is around 10%. Further, the half-life in series [4] (guinea pig, blood, sc, 1 mg/kg s.c., guinea pigs, read-out: initial blood t1/2 (converted)) is around 1 h. In addition, the concentration at 24 h in series [4] (guinea pig, brain, sc, 24 h after a 1 mg/kg s.c. dose, guinea pigs, read-out: brain level) worked out at 0.5 ng/g. For the same compound, the blood-brain-barrier penetration result in series [4] (guinea pig, in vivo) is “slowly”. The “reversal/prevention of the opioid dependent state” value in the series with MOR-μ* (listed as 6β-Naltrexol) is “extreme potency”; in the series on MOR-μ* (listed as 6β-naltrexol) it was “reverses the dependent state with high potency”. Besides, the “affinity for MOR” value on MOR [5] was “nearly equally robust affinities”. For the same compound, the “activity at KOR pretreated with KOR agonists” value in series [6] was “detectable inverse agonist activity”. The bioavailability in [7] and in series [9] was around 30% throughout. The half-life in blood in series [8] is around 12 h.

As for `CC(=O)N[C@@H]1CC[C@@]2(O)[C@H]3Cc4ccc(O)c5c4[C@@]2(CCN3CC2CC2)[C@@H]1O5` [6β-naltrexamide], in the series on MOR [1], the “change of antagonist potency when given before morphine compared to the same time” value is “gains potency; also recorded: increasing potency as a neutral antagonist”. In addition, the “affinity to MOR in vitro” value on MOR [10] was “high affinity”. For the same compound, at MOR [11], the “potency as a neutral antagonist” value was “low potency as a neutral antagonist” and the type of antagonism entry is “neutral antagonism”. Moreover, on MOR [12], the peripheral selectivity entry is given as “peripheral selectivity”. For the same compound, the peripheral selectivity result at MOR [12] (listed as 6β-Natrexamide) is on record as “strong peripherally selective activity”.

As to `O=C1CC[C@@]2(O)[C@H]3Cc4ccc(O)c5c4[C@@]2(CCN3CC2CC2)[C@H]1O5` [naltrexone, reference compound], the “initial total oral dose above which withdrawal symptoms occur” value with MOR [13] was at most 0.25 mg. In series [3], the “effect on MOR-μ* state” value is reported as “lock MOR into the active MOR-μ* state while blocking MOR-μ* signaling”.
